{
  "source": "patent US12433875B2",
  "about": "“(R)-4-(1-(6-(4-(trifluoromethyl)benzyl)-6-azaspiro[2.5]octane-5-carboxamido)-cyclopropyl) benzoic acid or its salt also in polymorphic form a for use in the prevention of heterotopic ossification” (ROTTAPHARM BIOTECH S.R.L., priority 2019, dated 2025)",
  "key": {"[1]": {"test_system": "Male Lewis rats (CIA model, osteophyte formation)", "assay": "CIA model in rats, micro-CT study of bone structure", "type": "in vivo, rat", "method": "Male Lewis rats were immunized and treated exactly as described in example 2.\nSpecifically, the animals were divided in four groups: controls, vehicle treated CIA rat, and two groups administered with a dose of 10 mg/kg and 30 mg/kg, respectively, of the compound of the invention.\nAfter 14 days of treatment, bone samples corresponding to hind limbs (left and right) of arthritic rats or sham ones were sent for micro-CT analysis to Atlantic Bone Screen (ABS, 3 rue Aronnax, 44800 SAINT-HERBLAIN France). Bone samples were sent to ABS facilities after they have been removed from soft tissue and fixed in formalin solution within a maximum of 1 week.\n40 samples were analyses blindly. Then, the unmask data were analyzed to compare the different groups:\nAnalyses of calcaneus and knee density and microarchitectural characteristics were performed using the high-resolution X-ray micro-CT. […] To quantitatively compare the four groups, the hind paw calcaneus, knee (proximal tibial and distal femoral epiphysis) and proximal tibial metaphysis were identified as the anatomical sites for micro-CT analysis. The bone mineral density (BMD), bone volume ratio (BV/TV), bone surface (BS) and bone surface-volume ratio (BS/BV) was calculated while including calcaneus, proximal tibial and distal femoral epiphysis (cortical bone, cancellous bone and potential osteophytes)."}, "[2]": {"test_system": "Male DBA/1 mice (CIA model)", "assay": "CIA in mice, histology of heterotopic bone formation", "type": "in vivo", "conditions": "30 mg/kg (lowest tested dose) once daily for 10 days, FIG. 9", "method": "CIA in mice is another very popular translational model to mimic human arthritis. […] Male DBA/1 mice were immunized by intradermal injection at the base of the tail with an emulsion of 200 μg of bCII in CFA containing 3 mg/ml Mycobacterium tuberculosis. Non-immunized mice served as the negative control of disease. Animals were monitored by visual inspection for appearance of peripheral edema. […] Upon onset, animals were recruited and randomized. Recruitment was given a cut-off at day 40. Upon recruitment, arthritis clinical score was assigned, and edema was measured via caliper. Mice were randomized into the following groups: vehicle, 30 mg/kg the form A of the sodium salt of (R)-4-(1-(6-(4-(trifluoromethyl)benzyl)-6-azaspiro[2.5]octane-5-carboxamido)cyclopropyl)benzoic acid, 60 mg/kg the form A of the sodium salt of (R)-4-(1-(6-(4-(trifluoromethyl)benzyl)-6-azaspiro[2.5]octane-5-carboxamido)cyclopropyl)benzoic acid and 60 mg/kg naproxen. Animals received the test drugs once daily for 10 days. Histology was performed as described for rats."}, "[3]": {"test_system": "Sprague Dawley male rats (AIA model)", "assay": "Adjuvant Induced Arthritis (AIA) in rats, histology of pathological bone apposition", "type": "in vivo, rat", "conditions": "10 mg/kg orally once a day for 15 days, FIG. 10", "from_the_text": "Adjuvant Induced Arthritis (AIA) in rats is a widely studied and accepted animal model of inflammatory arthritis driven by Tcells. In experimental autoimmune diseases, CFA mediated activation of the innate immune compartment is important not only by regulating the early induction phase, but also by providing a surplus of effector and regulator cells in the late phase. Also in this model it was possible to appreciate a relevant pathological apposition of new bone. This paradigm was used as a third model to further confirm the effect of the compound of the invention as an effective inhibitor of pathological heterotopic ossification.\nSprague Dawley male rats (Charles River) were immunized by intradermal injection at the base of the tail with 150 μl of complete Freund's adjuvant (CFA) containing 10 mg/ml of heat killed Mycobacterium tuberculosis (Chondrex code 7027) or with incomplete Freund's adjuvant (IFA) (sham n=10). Ten days after immunization arthritis developed in all animals, but not in the sham-group; edema and clinical scores were assessed and the animals were then randomized and assigned to treatment groups (n=9-12) as follows: vehicle, the compound of the invention 10 mg/kg or 30 mg/kg. The compound of the invention was administered orally once a day for 15 days. […]"}},
  "data": [
    {"smiles": "O=C([O-])c1ccc(C2(NC(=O)[C@H]3CC4(CCN3Cc3ccc(C(F)(F)F)cc3)CC4)CC2)cc1.[Na+]", "note": "[Form A, sodium (R)-4-(1-(6-(4-(trifluoromethyl)benzyl)-6-azaspiro[2.5]octane-5-carboxamido)cyclopropyl)benzoate]", "values": [
      {"measurement": "osteophytes at calcaneus and knee (micro-CT)", "setting": "[1]; 10 and 30 mg/kg, 14 days of treatment, FIG. 8", "value": "the osteophytes disappeared at both site"},
      {"measurement": "optimal dose (maximal activity) against osteophyte formation", "setting": "[1]; micro-CT, maintained at 30 mg/kg", "value": 10, "unit": "mg/kg"},
      {"measurement": "pathological bone formation (histology)", "setting": "[2]", "value": "completely abrogated in almost all animals"},
      {"measurement": "pathological bone apposition (histology)", "setting": "[3]", "value": "completely abrogated the pathological bone apposition in almost all animals"}
    ]}
  ]
}
